# According to ChEMBL document CHEMBL1795286, “A concise synthesis and antimicrobial activities of 3-polyamino-23,24-bisnorcholanes as steroid-polyamine conjugates” (2011):
# Columns and labels:
# Bacillus subtilis = assay: Antimicrobial activity against Bacillus subtilis ATCC 6633 after 18 hrs by twofold agar dilution method; assay type: functional; details: ATCC 6633, 18 h
# Escherichia coli [1] = assay: Antimicrobial activity against Escherichia coli 3190Y after 18 hrs by twofold agar dilution method; assay type: functional
# Proteus vulgaris = assay: Antimicrobial activity against Proteus vulgaris 6059 after 18 hrs by twofold agar dilution method; assay type: functional; details: Proteus vulgaris, 6059, 18 h
# Micrococcus luteus = assay: Antimicrobial activity against Micrococcus luteus ATCC 9341 after 18 hrs by twofold agar dilution method; assay type: functional; details: ATCC 9341, 18 h, read-out: MIC
# Staphylococcus aureus [2] = assay: Antimicrobial activity against Staphylococcus aureus ATCC 25923 after 18 hrs by twofold agar dilution method; assay type: functional; details: ATCC 25923, 18 h
# Staphylococcus aureus [3] = assay: Antimicrobial activity against Staphylococcus aureus 77 after 18 hrs by twofold agar dilution method; assay type: functional; details: Staphylococcus aureus, 77, 18 h; read-out: MIC
# Moraxella catarrhalis [4] = assay: Antimicrobial activity against Moraxella catarrhalis 25240 after 18 hrs by twofold agar dilution method; assay type: functional; details: Moraxella catarrhalis, 25240, 18 h
# Pseudomonas aeruginosa = assay: Antimicrobial activity against Pseudomonas aeruginosa 6065Y after 18 hrs by twofold agar dilution method; assay type: functional
# Escherichia coli [5] = assay: Antimicrobial activity against Escherichia coli ATCC 10536 after 18 hrs by twofold agar dilution method; assay type: functional; details: ATCC 10536, 18 h
# Enterobacter cloacae [6] = assay: Antimicrobial activity against Enterobacter cloacae P99 after 18 hrs by twofold agar dilution method; assay type: functional; details: P99, 18 h
# Escherichia coli [7] = assay: Antimicrobial activity against Escherichia coli 851E after 18 hrs by twofold agar dilution method; assay type: functional
# Morganella morganii = assay: Antimicrobial activity against Morganella morganii 1375E after 18 hrs by twofold agar dilution method; assay type: functional
# Klebsiella aerogenes = assay: Antimicrobial activity against Klebsiella aerogenes harboring beta-lactamase SHV-1 1976E mutant after 18 hrs by twofold agar dilution method; assay type: functional
# Serratia marcescens [8] = assay: Antimicrobial activity against Serratia marcescens 1826E after 18 hrs by twofold agar dilution method; assay type: functional
# Staphylococcus aureus [9] = assay: Antimicrobial activity against Staphylococcus aureus ATCC 6538P after 18 hrs by twofold agar dilution method; assay type: functional
# Klebsiella pneumoniae = assay: Antimicrobial activity against Klebsiella pneumoniae 2011E after 18 hrs by twofold agar dilution method; assay type: functional
# Salmonella typhimurium [10] = assay: Antimicrobial activity against Salmonella Typhimurium ATCC 14028 after 18 hrs by two-fold agar dilution method; assay type: functional, Salmonella enterica subsp. enterica serovar Typhimurium; details: Salmonella enterica, ATCC 14028, 18 h
# Salmonella typhimurium [11] = assay: Antimicrobial activity against Salmonella typhimurium ATCC 13311 after 18 hrs by twofold agar dilution method; assay type: functional, Salmonella enterica subsp. enterica serovar Typhimurium; details: Salmonella enterica, ATCC 13311, 18 h
# Citrobacter koseri = assay: Antimicrobial activity against Citrobacter diversus 2046 after 18 hrs by twofold agar dilution method; assay type: functional; details: Citrobacter koseri, 2046, 18 h
# Staphylococcus aureus [12] = assay: Antimicrobial activity against Staphylococcus aureus 241 after 18 hrs by twofold agar dilution method; assay type: functional; details: Staphylococcus aureus, 241, 18 h; read-out: MIC
# Bacillus licheniformis = assay: Antimicrobial activity against Bacillus licheniformis EMR after 18 hrs by twofold agar dilution method; assay type: functional
# Enterococcus faecalis = assay: Antimicrobial activity against Enterococcus faecalis ATCC 29212 after 18 hrs by twofold agar dilution method; assay type: functional; details: ATCC 29212, 18 h, read-out: MIC
# Serratia marcescens [13] = assay: Antimicrobial activity against Serratia marcescens ATCC 27117 after 18 hrs by twofold agar dilution method; assay type: functional; details: ATCC 27117, 18 h
# Bacillus cereus = assay: Antimicrobial activity against Bacillus cereus ATCC 27348 after 18 hrs by twofold agar dilution method; assay type: functional; details: ATCC 27348, 18 h
# [14] = system: Acinetobacter calcoaceticus; assay: Antimicrobial activity against Acinetobacter calcoaceticus ATCC 15473 after 18 hrs by twofold agar dilution method; assay type: functional; details: ATCC 15473, 18 h
# Staphylococcus aureus [15] = assay: Antimicrobial activity against Staphylococcus aureus giorgio after 18 hrs by twofold agar dilution method; assay type: functional
# Enterobacter cloacae [16] = assay: Antimicrobial activity against Enterobacter cloacae ATCC 27508 after 18 hrs by twofold agar dilution method; assay type: functional; details: ATCC 27508, 18 h
# Escherichia coli [17] = assay: Antimicrobial activity against Escherichia coli ATCC 25922 after 18 hrs by twofold agar dilution method; assay type: functional; details: ATCC 25922, 18 h
# Moraxella catarrhalis [18] = assay: Antimicrobial activity against Moraxella catarrhalis C2431 after 18 hrs by twofold agar dilution method; assay type: functional; details: C2431, 18 h
# [19] = system: Staphylococcus epidermidis; assay: Antimicrobial activity against Staphylococcus epidermidis 887E after 18 hrs by twofold agar dilution method; assay type: functional; details: read-out: MIC
# Citrobacter freundii = assay: Antimicrobial activity against Citrobacter freundii 8090 after 18 hrs by twofold agar dilution method; assay type: functional; details: Citrobacter freundii, 8090, 18 h
SMILES,MIC (Bacillus subtilis) [µg/mL],MIC (Proteus vulgaris) [µg/mL],MIC (Micrococcus luteus) [µg/mL],MIC (Staphylococcus aureus [3]) [µg/mL],MIC (Pseudomonas aeruginosa) [µg/mL],MIC (Enterobacter cloacae [6]) [µg/mL],MIC (Escherichia coli [7]) [µg/mL],MIC (Morganella morganii) [µg/mL],MIC (Klebsiella aerogenes) [µg/mL],MIC (Serratia marcescens [8]) [µg/mL],MIC (Staphylococcus aureus [9]) [µg/mL],MIC (Klebsiella pneumoniae) [µg/mL],MIC (Salmonella typhimurium [10]) [µg/mL],MIC (Salmonella typhimurium [11]) [µg/mL],MIC (Citrobacter koseri) [µg/mL],MIC (Staphylococcus aureus [12]) [µg/mL],MIC (Enterococcus faecalis) [µg/mL],MIC (Serratia marcescens [13]) [µg/mL],MIC [14] [µg/mL],MIC (Staphylococcus aureus [15]) [µg/mL],also measured
C[C@H](CO)[C@H]1CC[C@H]2[C@@H]3[C@H](F)C[C@H]4C[C@@H](NCCCNCCCCN)CC[C@]4(C)[C@H]3CC[C@]12C.Cl.Cl.Cl,16,> 32,16,8,> 32,> 32,> 32,> 32,> 32,> 32,8,> 32,> 32,> 32,> 32,8,< 32,> 32,> 32,8,MIC (Escherichia coli [1]; read-out: MIC): < 32 µg/mL; MIC (Staphylococcus aureus [2]): > 32 µg/mL; MIC (Moraxella catarrhalis [4]; read-out: MIC): 32 µg/mL; MIC (Escherichia coli [5]): > 32 µg/mL; MIC (Bacillus licheniformis; read-out: MIC): < 32 µg/mL; MIC (Bacillus cereus): > 32 µg/mL; MIC (Enterobacter cloacae [16]): > 32 µg/mL; MIC (Escherichia coli [17]): > 32 µg/mL; MIC (Moraxella catarrhalis [18]): > 32 µg/mL; MIC [19]: 16 µg/mL; MIC (Citrobacter freundii): > 32 µg/mL
C[C@H](CO)[C@H]1CC[C@H]2[C@@H]3[C@H](N)C[C@H]4C[C@@H](NCCCNCCCCN)CC[C@]4(C)[C@H]3CC[C@]12C.Cl.Cl.Cl,16,> 32,16,8,> 32,> 32,> 32,> 32,> 32,> 32,16,> 32,> 32,> 32,> 32,16,< 32,> 32,> 32,32,MIC (Escherichia coli [1]): > 32 µg/mL; MIC (Staphylococcus aureus [2]; read-out: MIC): 32 µg/mL; MIC (Moraxella catarrhalis [4]): > 32 µg/mL; MIC (Escherichia coli [5]): > 32 µg/mL; MIC (Bacillus licheniformis; read-out: MIC): < 32 µg/mL; MIC (Bacillus cereus; read-out: MIC): < 32 µg/mL; MIC (Enterobacter cloacae [16]): > 32 µg/mL; MIC (Escherichia coli [17]; read-out: MIC): < 32 µg/mL; MIC (Moraxella catarrhalis [18]; read-out: MIC): < 32 µg/mL; MIC [19]: 32 µg/mL; MIC (Citrobacter freundii): > 32 µg/mL
C[C@H](CO)[C@H]1CC[C@H]2[C@@H]3CC[C@@H]4C[C@@H](NCCCNCCCCNCCCN)CC[C@]4(C)[C@H]3CC[C@]12C.Cl.Cl.Cl.Cl,2,> 32,2,2,> 32,> 32,> 32,> 32,> 32,> 32,1,> 32,> 32,> 32,> 32,2,32,> 32,> 32,4,MIC (Escherichia coli [1]; read-out: MIC): 32 µg/mL; MIC (Staphylococcus aureus [2]; read-out: MIC): 16 µg/mL; MIC (Moraxella catarrhalis [4]): > 32 µg/mL; MIC (Escherichia coli [5]; read-out: MIC): 32 µg/mL; MIC (Bacillus licheniformis): > 32 µg/mL; MIC (Bacillus cereus; read-out: MIC): < 32 µg/mL; MIC (Enterobacter cloacae [16]): > 32 µg/mL; MIC (Escherichia coli [17]; read-out: MIC): 32 µg/mL; MIC (Moraxella catarrhalis [18]): > 32 µg/mL; MIC [19]: 4 µg/mL; MIC (Citrobacter freundii): > 32 µg/mL
C[C@H](CO)[C@H]1CC[C@H]2[C@@H]3CC[C@H]4C[C@H](NCCCNCCCCN)CC[C@]4(C)[C@H]3CC[C@]12C.Cl.Cl.Cl,8,> 32,8,4,> 32,> 32,> 32,> 32,> 32,> 32,4,> 32,> 32,> 32,> 32,4,32,> 32,> 32,8,MIC (Escherichia coli [1]): > 32 µg/mL; MIC (Staphylococcus aureus [2]; read-out: MIC): 16 µg/mL; MIC (Moraxella catarrhalis [4]; read-out: MIC): < 32 µg/mL; MIC (Escherichia coli [5]; read-out: MIC): 32 µg/mL; MIC (Bacillus licheniformis; read-out: MIC): 16 µg/mL; MIC (Bacillus cereus): > 32 µg/mL; MIC (Enterobacter cloacae [16]): > 32 µg/mL; MIC (Escherichia coli [17]; read-out: MIC): 32 µg/mL; MIC (Moraxella catarrhalis [18]): > 32 µg/mL; MIC [19]: 16 µg/mL; MIC (Citrobacter freundii): > 32 µg/mL
